Test results from patent publication US20220380374A1, “1,4-DIHYDROBENZO[D]PYRAZOLO[3,4-F][1,3]DIAZEPINE DERIVATIVES AND RELATED COMPOUNDS AS LRRK2, NUAK1 AND/OR TYK2 KINASE MODULATORS FOR THE TREATMENT OF E.G. AUTOIMMUNE DISEASE” (Origenis GMBH, priority 2019, published 2022).

target: T1, wt human NUAK1, full length (Homo sapiens, UniProt O60285); experiment: TR-FRET LanthaScreen Eu Kinase Binding Assay, NUAK1; conditions: 5 nM Kinase Tracer 236; read-out: IC50, inhibitory activity toward NUAK1
T1 construct: 8 nM wt human NUAK1, full length (ThermoFisher/USA); purchased ThermoFisher/USA
T1 sequence (O60285 1-661): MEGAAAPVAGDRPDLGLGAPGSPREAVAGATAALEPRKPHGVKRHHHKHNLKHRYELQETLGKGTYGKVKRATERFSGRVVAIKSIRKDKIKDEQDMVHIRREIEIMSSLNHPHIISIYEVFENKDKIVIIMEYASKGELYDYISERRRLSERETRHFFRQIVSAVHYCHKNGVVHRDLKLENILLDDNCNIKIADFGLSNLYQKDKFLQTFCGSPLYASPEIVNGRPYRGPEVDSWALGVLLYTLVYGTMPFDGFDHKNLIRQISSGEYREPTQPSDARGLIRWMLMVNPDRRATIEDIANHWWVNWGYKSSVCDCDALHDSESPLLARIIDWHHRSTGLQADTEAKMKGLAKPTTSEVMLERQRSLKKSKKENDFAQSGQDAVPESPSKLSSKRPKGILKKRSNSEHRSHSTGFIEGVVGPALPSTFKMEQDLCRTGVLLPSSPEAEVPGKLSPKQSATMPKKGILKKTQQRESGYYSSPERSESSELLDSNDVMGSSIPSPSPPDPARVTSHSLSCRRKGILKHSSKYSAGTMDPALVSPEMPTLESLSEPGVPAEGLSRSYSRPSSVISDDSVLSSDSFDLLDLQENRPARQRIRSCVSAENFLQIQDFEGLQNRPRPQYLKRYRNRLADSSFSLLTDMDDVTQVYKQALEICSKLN
Protocol: The basic protocol for TR-FRET LanthaScreen Eu Kinase Binding Assay inhibitor studies were performed as follows. LanthaScreen Kinase Binding Assays (ThermoFisher/USA) to evaluate inhibitors were performed by addition of 5 μl of test compound in corresponding DMSO dilutions/5 μl of kinase/antibody mixture, 5 μl of tracer into 384 well small volume plates. After incubation for 1 hour at room temperature, plates were read. Data analysis of emission ratios was according to LanthaScreen Eu Kinase Binding Assay protocol.
Kinase and assay components were adjusted to final concentrations according to the kit protocol. For LRRK2: 5 nM wt human LRRK2, catalytic site, or G2019S human LRRK2, catalytic site (ThermoFisher/USA), 2 nM Eu-Anti-GST Antibody, 10 nM Kinase Tracer 236 in 1× Kinase Buffer A. For NUAK1: 8 nM wt human NUAK1, full length (ThermoFisher/USA), 2 nM Eu-Anti-His Antibody, 5 nM Kinase Tracer 236 in 1× Kinase Buffer A.

How did the IC50 turn out when `Cc1ccc2c(c1)-c1[nH]ncc1N=C(c1c(F)cc(Br)cc1F)N2` [Compound 176, 5-(4-bromo-2,6-difluorophenyl)-9-methyl-1,6-dihydrobenzo[d]pyrazolo[3,4-f][1,3]diazepine] was run?
The IC50 was 100 to 1000 nM.

How did the IC50 turn out when `Cc1ccc2c(c1)-c1[nH]ncc1N=C(c1c(F)ccc(N)c1F)N2` [Compound 177, 2,4-difluoro-3-(9-methyl-1,6-dihydrobenzo[d]pyrazolo[3,4-f][1,3]diazepin-5-yl)aniline] was run?
Its IC50 is 100 to 1000 nM.

How did the IC50 turn out when `Cc1ccc2c(c1)-c1n[nH]cc1NC(c1c(F)ccc(C)c1F)=N2` [Compound 178, 5-(2,6-difluoro-3-methylphenyl)-9-methyl-2,4-dihydrobenzo[d]pyrazolo[3,4-f][1,3]diazepine] was run?
The IC50 was 10 to 100 nM.

`Cc1cc(F)c(C2=Nc3ccc(C)cc3-c3n[nH]cc3N2)c(F)c1` [Compound 179, 5-(2,6-difluoro-4-methylphenyl)-9-methyl-2,4-dihydrobenzo[d]pyrazolo[3,4-f][1,3]diazepine] was tested. Which IC50 did it give?
The IC50 was 10 to 100 nM.

How did the IC50 turn out when `Cc1ccc2c(c1)-c1[nH]ncc1NC(c1c(F)ccc(F)c1Cl)=N2` [Compound 185, 5-(2-chloro-3,6-difluorophenyl)-9-methyl-1,4-dihydrobenzo[d]pyrazolo[3,4-f][1,3]diazepine] was run?
The IC50 was 100 to 1000 nM.

How did the IC50 turn out when `Fc1cccc(Cl)c1C1=Nc2cnc(C(F)(F)F)cc2-c2[nH]ncc2N1` [Compound 188, 5-(2-chloro-6-fluorophenyl)-9-(trifluoromethyl)-1,4-dihydropyrazolo[4,3-d]pyrido[4,3-f][1,3]diazepine] was run?
The IC50 was 100 to 1000 nM.

For `FCCc1ccc2c(c1)-c1n[nH]cc1NC(c1c(F)cccc1F)=N2` [Compound 204, 5-(2,6-difluorophenyl)-9-(2-fluoroethyl)-2,4-dihydrobenzo[d]pyrazolo[3,4-f][1,3]diazepine], which IC50 is on record?
Its IC50 is 100 to 1000 nM.

For `Cc1ccc2c(c1)-c1n[nH]cc1NC(c1c(F)cc(C(F)(F)F)cc1F)=N2` [Compound 205, 5-(2,6-difluoro-4-(trifluoromethyl)phenyl)-9-methyl-2,4-dihydrobenzo[d]pyrazolo[3,4-f][1,3]diazepine], which IC50 is on record?
Its IC50 is 100 to 1000 nM.

For `Cc1ccc2c(c1)-c1n[nH]cc1NC(c1c(F)cccc1C(F)(F)F)=N2` [Compound 206, 5-(2-fluoro-6-(trifluoromethyl)phenyl)-9-methyl-2,4-dihydrobenzo[d]pyrazolo[3,4-f][1,3]diazepine], which IC50 is on record?
The IC50 was 100 to 1000 nM.

`O=C(Nc1ccc2c(c1)-c1n[nH]cc1NC(c1c(F)cccc1F)=N2)OCc1ccccc1` [Compound 207, benzyl(5-(2,6-difluorophenyl)-2,4-dihydrobenzo[d]pyrazolo[3,4-f][1,3]diazepin-9-yl)carbamate] was tested. Which IC50 did it give?
The IC50 was 10 to 100 nM.

`OCCc1ccc2c(c1)-c1n[nH]cc1NC(c1c(F)cccc1F)=N2` [Compound 208, 2-(5-(2,6-difluorophenyl)-2,4-dihydrobenzo[d]pyrazolo[3,4-f][1,3]diazepin-9-yl)ethan-1-ol] was tested. Which IC50 did it give?
Its IC50 is 100 to 1000 nM.

How did the IC50 turn out when `Fc1cccc(F)c1C1=Nc2ccc(CCCl)cc2-c2n[nH]cc2N1` [Compound 209, 9-(2-chloroethyl)-5-(2,6-difluorophenyl)-2,4-dihydrobenzo[d]pyrazolo[3,4-f][1,3]diazepine] was run?
The IC50 was 10 to 100 nM.

For `Cc1ccc2c(c1)-c1n[nH]c(C)c1NC(c1c(F)cccc1F)=N2` [Compound 212, 5-(2,6-difluorophenyl)-3,9-dimethyl-2,4-dihydrobenzo[d]pyrazolo[3,4-f][1,3]diazepine], which IC50 is on record?
The IC50 was 100 to 1000 nM.
